Four compounds from the NIST ThermoML archive (doi:10.1021/je034203p) can be followed below.

Molecules are shown by their SMILES. ± gives the expanded uncertainty stated by the source.

By mass density is commonly meant the mass of a sample divided by its volume. Broadly, the viscosity is the internal friction of a fluid under shear.

The conditions of the data set: 298.15 K, 101.3 kPa, Liquid; for viscosity: Capillary tube (Ostwald / Ubbelohde) method.

Take `COC(C)=O` [methyl ethanoate]: the mass density came to 923.9 ± 0.6 kg/m3 and the viscosity amounted to 0.3711 ± 0.0068 mPa·s.

Consider `CCCCO` [butan-1-ol], for which the mass density was 806.3 ± 0.7 kg/m3 and the viscosity is 2.538 ± 0.023 mPa·s.

For `ClC(Cl)(Cl)Cl` [tetrachloromethane], the mass density was determined as 1586.1 ± 1.6 kg/m3 and the viscosity is 0.9096 ± 0.0095 mPa·s.

For `CO` [methanol], the mass density was 788.1 ± 0.7 kg/m3 and the viscosity worked out at 0.5482 ± 0.0075 mPa·s.
